Earlier results in patent US7183112B2, “Uses for anti-malarial therapeutic agents” (APT Pharmaceuticals, LLC, priority 1999, dated 2007).
Counter-ions that a name gives are not always drawn. Like-named read-outs stand apart in the source and are kept apart here.

Columns and labels:
[1] = cited from earlier work
[2] = system: allergic asthma; settings: Fahy et al. 1999, cited from earlier work

| Molecule | solubility in water [1] | efficacy for treating allergic asthma ([2]; inhalation) | efficacy for treating allergic asthma ([2]; intravenous administration) |
| --- | --- | --- | --- |
| CCN(CCO)CCCC(C)Nc1ccnc2cc(Cl)ccc12 (stereo not drawn) [hydroxychloroquine sulfate] | readily soluble | – | – |
| Anti IgE(E25): Anti IgE(E25), given intravenously or by inhalation for allergic asthma (Fahy et al.) | – | virtually ineffective | effective |
